Assay results reported in ChEMBL document CHEMBL3885861, “Open TG-GATES”.

Species on record: Rattus norvegicus
Test: Open TG-GATES - Regimen: Single
Format: toxicity, organism-based, Sprague-Dawley
Parameters: regimen Single, gender Male, age 6 weeks
Settings: in vivo, po, route gavage; for APTT / Bas / Eos / Fbg / Hb / Ht / Lym / MCH / MCHC / MCV / Mono / Neu / PT / Plat / RBC / Ret / WBC: tissue Blood; for KIDNEY_L / KIDNEY_R / KIDNEY_TOTAL: tissue Kidney; for LIVER: tissue Liver; for A/G / ALP / ALT / AST / BUN / CRE / Ca / Cl / DBIL / GLC / IP / K / LDH / Na / PL / RALB / TBIL / TC / TG / TP / gamma-GTP: tissue Plasma
[1] = 100 mg/kg, 3 h, dose level Middle
[2] = 100 mg/kg, 6 h, dose level Middle
[3] = 100 mg/kg, 9 h, dose level Middle
[4] = 100 mg/kg, 24 h, dose level Middle
[5] = 300 mg/kg, 3 h, dose level High
[6] = 300 mg/kg, 6 h, dose level High
[7] = 300 mg/kg, 9 h, dose level High
[8] = 300 mg/kg, 24 h, dose level High

CCCNC(=O)NS(=O)(=O)c1ccc(Cl)cc1 [CHLORPROPAMIDE]
TERMINAL_BW [1]: 198.7 g
APTT [1]: 19.6 s
Bas [1]: 0%
Eos [1]: 1%
Fbg [1]: 311.8 mg/dL
Hb [1]: 13.9 g/dL
Ht [1]: 42.7%
Lym [1]: 73.2%
MCH [1]: 21.4 pg
MCHC [1]: 32.5%
MCV [1]: 66 fL
Mono [1]: 3.8%
Neu [1]: 20.8%
PT [1]: 15.6 s
Plat [1]: 113.1 x10_4/uL
RBC [1]: 648.4 x10_4/ul
Ret [1]: 9.2%
WBC [1]: 72.2 x10_2/uL
KIDNEY_L [1]: 0.9 g
KIDNEY_R [1]: 0.9 g
KIDNEY_TOTAL [1]: 1.8 g
LIVER [1]: 8.8 g
A/G [1]: 0.9
ALP [1]: 1315.6 IU/L
ALT [1]: 48.8 IU/L
AST [1]: 80 IU/L
BUN [1]: 11.2 mg/dL
CRE [1]: 0.2 mg/dL
Ca [1]: 10.8 mg/dL
Cl [1]: 107.8 meq/L
DBIL [1]: 0.01 mg/dL
GLC [1]: 126.4 mg/dL
IP [1]: 9.2 mg/dL
K [1]: 3.8 meq/L
LDH [1]: 71.6 IU/L
Na [1]: 144.6 meq/L
PL [1]: 129 mg/dL
RALB [1]: 2.6 g/dL
TBIL [1]: 0.02 mg/dL
TC [1]: 74.6 mg/dL
TG [1]: 71 mg/dL
TP [1]: 5.7 g/dL
gamma-GTP [1]: 1.4 IU/L
TERMINAL_BW [2]: 194.9 g
APTT [2]: 23.7 s
Bas [2]: 0.2%
Eos [2]: 1%
Fbg [2]: 317 mg/dL
Hb [2]: 13.6 g/dL
Ht [2]: 41.9%
Lym [2]: 71.6%
MCH [2]: 21.7 pg
MCHC [2]: 32.4%
MCV [2]: 66.9 fL
Mono [2]: 3.6%
Neu [2]: 22.4%
PT [2]: 15.1 s
Plat [2]: 122.2 x10_4/uL
RBC [2]: 627 x10_4/ul
Ret [2]: 9.8%
WBC [2]: 96.8 x10_2/uL
KIDNEY_L [2]: 0.9 g
KIDNEY_R [2]: 0.8 g
KIDNEY_TOTAL [2]: 1.7 g
LIVER [2]: 8 g
A/G [2]: 0.9
ALP [2]: 1525.8 IU/L
ALT [2]: 44.2 IU/L
AST [2]: 80.8 IU/L
BUN [2]: 12.6 mg/dL
CRE [2]: 0.2 mg/dL
Ca [2]: 11 mg/dL
Cl [2]: 109 meq/L
DBIL [2]: 0.002 mg/dL
GLC [2]: 123.8 mg/dL
IP [2]: 9.9 mg/dL
K [2]: 4 meq/L
LDH [2]: 81 IU/L
Na [2]: 143.8 meq/L
PL [2]: 139.6 mg/dL
RALB [2]: 2.6 g/dL
TBIL [2]: 0.02 mg/dL
TC [2]: 85.4 mg/dL
TG [2]: 49.8 mg/dL
TP [2]: 5.7 g/dL
gamma-GTP [2]: 1.2 IU/L
TERMINAL_BW [3]: 194.2 g
APTT [3]: 17.1 s
Bas [3]: 0%
Eos [3]: 1%
Fbg [3]: 307.8 mg/dL
Hb [3]: 13.1 g/dL
Ht [3]: 40.7%
Lym [3]: 71.4%
MCH [3]: 20.9 pg
MCHC [3]: 32.3%
MCV [3]: 64.8 fL
Mono [3]: 3%
Neu [3]: 24%
PT [3]: 15.1 s
Plat [3]: 119.5 x10_4/uL
RBC [3]: 627.4 x10_4/ul
Ret [3]: 10%
WBC [3]: 82.5 x10_2/uL
KIDNEY_L [3]: 0.9 g
KIDNEY_R [3]: 0.9 g
KIDNEY_TOTAL [3]: 1.8 g
LIVER [3]: 7.8 g
A/G [3]: 0.9
ALP [3]: 1124.6 IU/L
ALT [3]: 35.6 IU/L
AST [3]: 77 IU/L
BUN [3]: 9.8 mg/dL
CRE [3]: 0.2 mg/dL
Ca [3]: 10.7 mg/dL
Cl [3]: 107.6 meq/L
DBIL [3]: 0 mg/dL
GLC [3]: 119.4 mg/dL
IP [3]: 10.1 mg/dL
K [3]: 3.9 meq/L
LDH [3]: 68.6 IU/L
Na [3]: 143.2 meq/L
PL [3]: 120.4 mg/dL
RALB [3]: 2.5 g/dL
TBIL [3]: 0.026 mg/dL
TC [3]: 70.8 mg/dL
TG [3]: 37 mg/dL
TP [3]: 5.4 g/dL
gamma-GTP [3]: 1.2 IU/L
TERMINAL_BW [4]: 210.9 g
APTT [4]: 20 s
Bas [4]: 0%
Eos [4]: 1%
Fbg [4]: 318.2 mg/dL
Hb [4]: 12.6 g/dL
Ht [4]: 39.1%
Lym [4]: 73%
MCH [4]: 21 pg
MCHC [4]: 32.2%
MCV [4]: 65.2 fL
Mono [4]: 3.6%
Neu [4]: 21%
PT [4]: 15.8 s
Plat [4]: 111.8 x10_4/uL
RBC [4]: 599.4 x10_4/ul
Ret [4]: 9.2%
WBC [4]: 97.9 x10_2/uL
KIDNEY_L [4]: 0.9 g
KIDNEY_R [4]: 1 g
KIDNEY_TOTAL [4]: 1.9 g
LIVER [4]: 9.6 g
A/G [4]: 0.9
ALP [4]: 1496.2 IU/L
ALT [4]: 45.4 IU/L
AST [4]: 70.2 IU/L
BUN [4]: 15.6 mg/dL
CRE [4]: 0.2 mg/dL
Ca [4]: 10.9 mg/dL
Cl [4]: 105.8 meq/L
DBIL [4]: 0.004 mg/dL
GLC [4]: 177.4 mg/dL
IP [4]: 8.4 mg/dL
K [4]: 3.7 meq/L
LDH [4]: 87.2 IU/L
Na [4]: 143 meq/L
PL [4]: 145 mg/dL
RALB [4]: 2.6 g/dL
TBIL [4]: 0.032 mg/dL
TC [4]: 81.4 mg/dL
TG [4]: 63.6 mg/dL
TP [4]: 5.5 g/dL
gamma-GTP [4]: 1 IU/L
TERMINAL_BW [5]: 198 g
APTT [5]: 20.5 s
Bas [5]: 0%
Eos [5]: 0.6%
Fbg [5]: 309.8 mg/dL
Hb [5]: 14.6 g/dL
Ht [5]: 45.2%
Lym [5]: 74.8%
MCH [5]: 20.8 pg
MCHC [5]: 32.2%
MCV [5]: 64.6 fL
Mono [5]: 4.6%
Neu [5]: 18.6%
PT [5]: 15.7 s
Plat [5]: 121.4 x10_4/uL
RBC [5]: 700.6 x10_4/ul
Ret [5]: 9.7%
WBC [5]: 57 x10_2/uL
KIDNEY_L [5]: 0.8 g
KIDNEY_R [5]: 0.9 g
KIDNEY_TOTAL [5]: 1.7 g
LIVER [5]: 9.1 g
A/G [5]: 0.9
ALP [5]: 1404.2 IU/L
ALT [5]: 46.4 IU/L
AST [5]: 80.8 IU/L
BUN [5]: 12 mg/dL
CRE [5]: 0.2 mg/dL
Ca [5]: 10.8 mg/dL
Cl [5]: 105.4 meq/L
DBIL [5]: 0.008 mg/dL
GLC [5]: 147.4 mg/dL
IP [5]: 10.1 mg/dL
K [5]: 3.8 meq/L
LDH [5]: 86 IU/L
Na [5]: 143.8 meq/L
PL [5]: 126.8 mg/dL
RALB [5]: 2.8 g/dL
TBIL [5]: 0.018 mg/dL
TC [5]: 71.8 mg/dL
TG [5]: 60 mg/dL
TP [5]: 6 g/dL
gamma-GTP [5]: 1 IU/L
TERMINAL_BW [6]: 195 g
APTT [6]: 19.7 s
Bas [6]: 0%
Eos [6]: 1%
Fbg [6]: 344.4 mg/dL
Hb [6]: 14.6 g/dL
Ht [6]: 44.7%
Lym [6]: 72.2%
MCH [6]: 21.7 pg
MCHC [6]: 32.6%
MCV [6]: 66.6 fL
Mono [6]: 4.2%
Neu [6]: 21.4%
PT [6]: 16.1 s
Plat [6]: 105.8 x10_4/uL
RBC [6]: 670.8 x10_4/ul
Ret [6]: 9%
WBC [6]: 59.6 x10_2/uL
KIDNEY_L [6]: 0.9 g
KIDNEY_R [6]: 0.9 g
KIDNEY_TOTAL [6]: 1.8 g
LIVER [6]: 8 g
A/G [6]: 0.9
ALP [6]: 1619.2 IU/L
ALT [6]: 45.2 IU/L
AST [6]: 77.4 IU/L
BUN [6]: 14.8 mg/dL
CRE [6]: 0.2 mg/dL
Ca [6]: 10.9 mg/dL
Cl [6]: 106.2 meq/L
DBIL [6]: 0.004 mg/dL
GLC [6]: 108.4 mg/dL
IP [6]: 10.2 mg/dL
K [6]: 4.1 meq/L
LDH [6]: 82.6 IU/L
Na [6]: 143.2 meq/L
PL [6]: 135.8 mg/dL
RALB [6]: 2.8 g/dL
TBIL [6]: 0.018 mg/dL
TC [6]: 79.8 mg/dL
TG [6]: 46.6 mg/dL
TP [6]: 6 g/dL
gamma-GTP [6]: 1.2 IU/L
TERMINAL_BW [7]: 193.3 g
APTT [7]: 19.1 s
Bas [7]: 0.4%
Eos [7]: 0.8%
Fbg [7]: 391.6 mg/dL
Hb [7]: 13.4 g/dL
Ht [7]: 41.5%
Lym [7]: 72.2%
MCH [7]: 21.3 pg
MCHC [7]: 32.3%
MCV [7]: 65.8 fL
Mono [7]: 3%
Neu [7]: 23.2%
PT [7]: 16.8 s
Plat [7]: 118.3 x10_4/uL
RBC [7]: 629.8 x10_4/ul
Ret [7]: 8.9%
WBC [7]: 93.5 x10_2/uL
KIDNEY_L [7]: 0.9 g
KIDNEY_R [7]: 0.9 g
KIDNEY_TOTAL [7]: 1.7 g
LIVER [7]: 8.2 g
A/G [7]: 0.9
ALP [7]: 1339.6 IU/L
ALT [7]: 46.8 IU/L
AST [7]: 83.2 IU/L
BUN [7]: 15.4 mg/dL
CRE [7]: 0.2 mg/dL
Ca [7]: 10.9 mg/dL
Cl [7]: 106.4 meq/L
DBIL [7]: 0.008 mg/dL
GLC [7]: 96.8 mg/dL
IP [7]: 10.3 mg/dL
K [7]: 3.9 meq/L
LDH [7]: 85.2 IU/L
Na [7]: 143.6 meq/L
PL [7]: 127.8 mg/dL
RALB [7]: 2.7 g/dL
TBIL [7]: 0.022 mg/dL
TC [7]: 72.4 mg/dL
TG [7]: 50.6 mg/dL
TP [7]: 5.8 g/dL
gamma-GTP [7]: 1.2 IU/L
TERMINAL_BW [8]: 201.3 g
APTT [8]: 21.1 s
Bas [8]: 0%
Eos [8]: 1%
Fbg [8]: 308 mg/dL
Hb [8]: 13.2 g/dL
Ht [8]: 41.1%
Lym [8]: 81.2%
MCH [8]: 20.4 pg
MCHC [8]: 32.1%
MCV [8]: 63.5 fL
Mono [8]: 3%
Neu [8]: 13.6%
PT [8]: 16.2 s
Plat [8]: 114.9 x10_4/uL
RBC [8]: 647.2 x10_4/ul
Ret [8]: 7%
WBC [8]: 88.4 x10_2/uL
KIDNEY_L [8]: 0.9 g
KIDNEY_R [8]: 0.9 g
KIDNEY_TOTAL [8]: 1.8 g
LIVER [8]: 8.5 g
A/G [8]: 0.9
ALP [8]: 1944.4 IU/L
ALT [8]: 46.8 IU/L
AST [8]: 75 IU/L
BUN [8]: 15.4 mg/dL
CRE [8]: 0.2 mg/dL
Ca [8]: 10.8 mg/dL
Cl [8]: 108 meq/L
DBIL [8]: 0.008 mg/dL
GLC [8]: 185.4 mg/dL
IP [8]: 8.1 mg/dL
K [8]: 3.6 meq/L
LDH [8]: 74 IU/L
Na [8]: 142.2 meq/L
PL [8]: 129.6 mg/dL
RALB [8]: 2.7 g/dL
TBIL [8]: 0.022 mg/dL
TC [8]: 74.8 mg/dL
TG [8]: 45.4 mg/dL
TP [8]: 5.7 g/dL
gamma-GTP [8]: 1 IU/L
